System: MDA-MB-231
Test: normalised viability (% of control), CellTiter-Blue; higher = more viable cells (about 100 = DMSO control)
Conditions: 10 nM; incubation time: 72 h
Outline: (§1)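 Vehicle (100) and a positive kill control (0) anchored the normalisation of each plate, and Z'-factor was used for quality control. Breast cancer cell lines in 20 µl suspension were incubated 72 h over compound in 5 µl medium in 384-well plates, followed by CellTiter-Blue at 560/590 nm. The value is normalised viability at a single listed concentration of the series.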

Compound	normalised viability [%]
CCCS(=O)(=O)Nc1ccc(F)c(C(=O)c2c[nH]c3ncc(-c4ccc(Cl)cc4)cc23)c1F [Vemurafenib]	91.5
O=C(O)C(=O)O.[NH-][C@@H]1CCCC[C@H]1[NH-].[Pt+2] [Oxaliplatin]	92.2
Cc1ccc(-c2cc(C(F)(F)F)nn2-c2ccc(S(N)(=O)=O)cc2)cc1 [Celecoxib]	96.2
NCCCNCCSP(=O)(O)O [Amifostine]	86.7
C[C@H]1C[C@@H]2[C@H]([C@@H](O)C[C@@]3(C)[C@H]2CC[C@]3(O)C(=O)CO)[C@@]2(C)C=CC(=O)C=C12 [Methylprednisolone]	104
CCc1cncnc1N1CCN(Cc2nc3ccc(C(F)(F)F)cc3[nH]2)CC1	96.9
Oc1ncc(N(CCCl)CCCl)c(O)n1 [Uracil mustard]	100
CC1=C(/C=C/C(C)=C/C=C/C(C)=C/C(=O)O)C(C)(C)CCC1 [Tretinoin]	103

Same assay, conditions: 100 nM; incubation time: 72 h

Compound	normalised viability [%]
COc1cc2c(Oc3ccc4[nH]c(C)cc4c3F)ncnc2cc1OCCCN1CCCC1 [Cediranib]	83.7
C=CC(=O)N1CCC[C@@H](n2nc(-c3ccc(Oc4ccccc4)cc3)c3c(N)ncnc32)C1	101
Cc1cnc(NC(=O)Nc2cc(Br)c(C)cc2OC[C@@H]2CNCCO2)cn1	103

Same assay, conditions: 1000 nM; incubation time: 72 h

Compound	normalised viability [%]
Nc1nc(F)nc2c1ncn2[C@@H]1O[C@H](CO)[C@@H](O)[C@@H]1O [Fludarabine]	89.9
O=C(O)C1(C(=O)O)CCC1.[NH2-].[NH2-].[Pt+2] [Carboplatin]	113
N#Cc1ccc(C(c2ccc(C#N)cc2)n2cncn2)cc1 [Letrozole]	87.8
C1CN1c1nc(N2CC2)nc(N2CC2)n1 [Triethylenemelamine]	81.8
CCCS(=O)(=O)Nc1ccc(F)c(C(=O)c2c[nH]c3ncc(-c4ccc(Cl)cc4)cc23)c1F [Vemurafenib]	92.4
O=C(O)C(=O)O.[NH-][C@@H]1CCCC[C@H]1[NH-].[Pt+2] [Oxaliplatin]	83.5
Cc1ccc(-c2cc(C(F)(F)F)nn2-c2ccc(S(N)(=O)=O)cc2)cc1 [Celecoxib]	86.7
NCCCNCCSP(=O)(O)O [Amifostine]	101
COc1cc2c(Oc3ccc4[nH]c(C)cc4c3F)ncnc2cc1OCCCN1CCCC1 [Cediranib]	92
C[C@H]1C[C@@H]2[C@H]([C@@H](O)C[C@@]3(C)[C@H]2CC[C@]3(O)C(=O)CO)[C@@]2(C)C=CC(=O)C=C12 [Methylprednisolone]	114
CCc1cncnc1N1CCN(Cc2nc3ccc(C(F)(F)F)cc3[nH]2)CC1	98.2
C=CC(=O)N1CCC[C@@H](n2nc(-c3ccc(Oc4ccccc4)cc3)c3c(N)ncnc32)C1	111
Oc1ncc(N(CCCl)CCCl)c(O)n1 [Uracil mustard]	103
Cc1cnc(NC(=O)Nc2cc(Br)c(C)cc2OC[C@@H]2CNCCO2)cn1	94
CC1=C(/C=C/C(C)=C/C=C/C(C)=C/C(=O)O)C(C)(C)CCC1 [Tretinoin]	104

Same assay, conditions: 10000 nM; incubation time: 72 h

Compound	normalised viability [%]
Nc1nc(F)nc2c1ncn2[C@@H]1O[C@H](CO)[C@@H](O)[C@@H]1O [Fludarabine]	81.1
O=C(O)C1(C(=O)O)CCC1.[NH2-].[NH2-].[Pt+2] [Carboplatin]	93.7
N#Cc1ccc(C(c2ccc(C#N)cc2)n2cncn2)cc1 [Letrozole]	95.5
C1CN1c1nc(N2CC2)nc(N2CC2)n1 [Triethylenemelamine]	78.9
CCCS(=O)(=O)Nc1ccc(F)c(C(=O)c2c[nH]c3ncc(-c4ccc(Cl)cc4)cc23)c1F [Vemurafenib]	100
O=C(O)C(=O)O.[NH-][C@@H]1CCCC[C@H]1[NH-].[Pt+2] [Oxaliplatin]	48.9
Cc1ccc(-c2cc(C(F)(F)F)nn2-c2ccc(S(N)(=O)=O)cc2)cc1 [Celecoxib]	99.6
NCCCNCCSP(=O)(O)O [Amifostine]	86.5
C[C@H]1C[C@@H]2[C@H]([C@@H](O)C[C@@]3(C)[C@H]2CC[C@]3(O)C(=O)CO)[C@@]2(C)C=CC(=O)C=C12 [Methylprednisolone]	119
CCc1cncnc1N1CCN(Cc2nc3ccc(C(F)(F)F)cc3[nH]2)CC1	106
Oc1ncc(N(CCCl)CCCl)c(O)n1 [Uracil mustard]	89.5
CC1=C(/C=C/C(C)=C/C=C/C(C)=C/C(=O)O)C(C)(C)CCC1 [Tretinoin]	109

System: BT-474
Test: as above
Conditions: 1 nM; incubation time: 72 h
Outline: as §1

Compound	normalised viability [%]
COc1cc2c(Oc3ccc4[nH]c(C)cc4c3F)ncnc2cc1OCCCN1CCCC1 [Cediranib]	109
C=CC(=O)N1CCC[C@@H](n2nc(-c3ccc(Oc4ccccc4)cc3)c3c(N)ncnc32)C1	124
Cc1cnc(NC(=O)Nc2cc(Br)c(C)cc2OC[C@@H]2CNCCO2)cn1	102

Same assay, conditions: 10 nM; incubation time: 72 h

Compound	normalised viability [%]
Nc1nc(F)nc2c1ncn2[C@@H]1O[C@H](CO)[C@@H](O)[C@@H]1O [Fludarabine]	94
O=C(O)C1(C(=O)O)CCC1.[NH2-].[NH2-].[Pt+2] [Carboplatin]	127
N#Cc1ccc(C(c2ccc(C#N)cc2)n2cncn2)cc1 [Letrozole]	105
C1CN1c1nc(N2CC2)nc(N2CC2)n1 [Triethylenemelamine]	111
CCCS(=O)(=O)Nc1ccc(F)c(C(=O)c2c[nH]c3ncc(-c4ccc(Cl)cc4)cc23)c1F [Vemurafenib]	106
O=C(O)C(=O)O.[NH-][C@@H]1CCCC[C@H]1[NH-].[Pt+2] [Oxaliplatin]	125
Cc1ccc(-c2cc(C(F)(F)F)nn2-c2ccc(S(N)(=O)=O)cc2)cc1 [Celecoxib]	111
NCCCNCCSP(=O)(O)O [Amifostine]	94.2
C[C@H]1C[C@@H]2[C@H]([C@@H](O)C[C@@]3(C)[C@H]2CC[C@]3(O)C(=O)CO)[C@@]2(C)C=CC(=O)C=C12 [Methylprednisolone]	121
CCc1cncnc1N1CCN(Cc2nc3ccc(C(F)(F)F)cc3[nH]2)CC1	115
Oc1ncc(N(CCCl)CCCl)c(O)n1 [Uracil mustard]	122
CC1=C(/C=C/C(C)=C/C=C/C(C)=C/C(=O)O)C(C)(C)CCC1 [Tretinoin]	129

Same assay, conditions: 100 nM; incubation time: 72 h

Compound	normalised viability [%]
COc1cc2c(Oc3ccc4[nH]c(C)cc4c3F)ncnc2cc1OCCCN1CCCC1 [Cediranib]	101
C=CC(=O)N1CCC[C@@H](n2nc(-c3ccc(Oc4ccccc4)cc3)c3c(N)ncnc32)C1	45.9
Cc1cnc(NC(=O)Nc2cc(Br)c(C)cc2OC[C@@H]2CNCCO2)cn1	107
